≈ marks a conversion by molar mass, not a printed value. Read-outs that look alike come from different tables or passages of the source.
Assays:
Escherichia coli R-1513 = test: "In vitro" MIC, Escherichia coli R-1513; assay type: cell-based; conditions: read-out: "In vitro" MIC
Experimental: (§1) Antimicrobial pharmacological activity (G. L. Daquet and Y. A. Chabbect, Techniques en bacteriologie (Techniques in bacteriology), vol. 3, Flammarion Medecine-Sciences, Paris, 1972, and W. B. Hugo and A. D. Rusell, Pharmaceutical Microbiology, Blackwell Scientific Publications, London (1977).
(§2) A streak culture of each of the microorganisms is formed in tubes of antibiotics agar no. 1 and incubated for 20 hours at 37° C. A culture loop is then taken and a culture is formed in a tryptone-soya broth and incubated for 20 hours at 37° C. The resulting culture is diluted to 1/4 with Ringer's physiological solution to give a standardized suspension of 10^5 ufc/ml for each organism.
(§3) Starting from a solution of 1000 μg/ml in 0.1N NaOH, each product is diluted successively in dextrose agar (melted beforehand and kept at 50° C.) to give the following concentrations: 64-32-16-8-4-2-1-0.5-0.25-0.125 μg of derivative/ml of medium.
(§4) After this, each concentration of each product is divided up into Petri dishes of 10 cm diameter at a rate of 10 ml of medium per dish and using as many dishes as there are microorganisms to be tested.
(§5) Once the medium has cooled, the dishes are treated with the inoculations at a rate of 0.4 ml of inoculation per dish. They are spread out with a Drigalski loop and the supernatant is collected. The inoculated dishes are incubated at 37° C. for 20 hours.

[1] = test system: Serratia marcescens ATTC 13880; test: "In vitro" MIC, Serratia marcescens; assay type: cell-based; conditions: read-out: "In vitro" MIC
Experimental: as §1
Serratia marcescens ATTC 13880
as §2, §3, §4, §5

[2] = test system: Bacillus subtilis ATCC 6633; test: "In vitro" MIC, Bacillus subtilis; assay type: cell-based; conditions: read-out: "In vitro" MIC
Experimental: as §1
Bacillus subtilis ATCC 6633
as §2, §3, §4, §5

[3] = test system: Streptococcus faecalis ATCC 10541; test: "In vitro" MIC, Streptococcus faecalis; assay type: cell-based; conditions: Enterococcus faecalis, read-out: "In vitro" MIC
Experimental: as §1
Streptococcus faecalis ATCC 10541
as §2, §3, §4, §5

Acute toxicity to mice = conditions: mouse, in vivo, ip, suspension in 5% gum arabic, mortality over 7 days
Experimental: The experimental animals used to determine this toxicity were albino mice of the C.F.L.P. strain and of both sexes, weighing between 19 and 25 grams. After an 18-hour fasting period with water "ad libitum", the derivatives forming the subject of the present invention are administered intraperitoneally as a suspension in 5% gum arabic. The volume of suspension administered was 0.4 ml/20 grams (20 ml/kg) in all cases, the concentration of the suspension being changed according to the dose administered.
One hour after administration of the derivatives, the animals are given a standard Panlab rat-mouse food. The mortality was observed over a period of 7 days. Differences in mortality between the sexes were not observed with any of the products.

[4] = test system: Micrococcus flavus ATCC 10240; test: "In vitro" MIC, Micrococcus flavus; assay type: cell-based; conditions: read-out: "In vitro" MIC
Experimental: as §1
Micrococcus flavus ATTC 10240
as §2, §3, §4, §5

[5] = test system: Klebsiella pneumoniae ATCC 10031; test: "In vitro" MIC, Klebsiella pneumoniae; assay type: cell-based; conditions: read-out: "In vitro" MIC
Experimental: as §1
Klebsiella pneumoniae ATCC 10031
as §2, §3, §4, §5

Gram-positive cocci = test: "In vitro" antimicrobial activity compared with nalidixic acid, Gram-positive cocci; assay type: cell-based
Experimental: as §1, §2, §3, §4, §5

[6] = test system: Pseudomonas aeruginosa 25115; test: "In vitro" MIC, Pseudomonas aeruginosa 25115; assay type: cell-based; conditions: read-out: "In vitro" MIC
Experimental: as §1
Pseudomonas aeruginosa 25115
as §2, §3, §4, §5

[7] = test system: Enterobacteriaceae (Pseudomonas aeruginosa); test: "In vitro" antimicrobial activity compared with nalidixic acid, Enterobacteriaceae (Pseudomonas aeruginosa); assay type: cell-based
Experimental: as §1, §2, §3, §4, §5

[8] = test system: Escherichia coli ATCC 10536; test: "In vitro" MIC, Escherichia coli ATCC 10536; assay type: cell-based; conditions: read-out: "In vitro" MIC
Experimental: as §1
Escherichia coli ATCC 10536
as §2, §3, §4, §5

[9] = test system: Pseudomonas aeruginosa ADSA 47; test: "In vitro" MIC, Pseudomonas aeruginosa ADSA 47; assay type: cell-based; conditions: read-out: "In vitro" MIC
Experimental: as §1
Pseudomonas aeruginosa ADSA 47
as §2, §3, §4, §5

[10] = test system: Enterobacter aerogenes ATCC 15038; test: "In vitro" MIC, Enterobacter aerogenes; assay type: cell-based; conditions: Klebsiella aerogenes, read-out: "In vitro" MIC
Experimental: as §1
Enterobacter aerogenes ATCC 15038
as §2, §3, §4, §5

[11] = test system: Salmonella typhimurium AMES 100; test: "In vitro" MIC, Salmonella typhimurium AMES 100; assay type: cell-based; conditions: Salmonella enterica, read-out: "In vitro" MIC
Experimental: as §1
Salmonella typhimurium AMES 100
as §2, §3, §4, §5

[12] = test system: Enterobacter cloacae CHSP-20; test: "In vitro" MIC, Enterobacter cloacae; assay type: cell-based; conditions: read-out: "In vitro" MIC
Experimental: as §1
Enterobacter cloacae CHSP-20
as §2, §3, §4, §5

[13] = test system: Proteus mirabilis ATCC 4675; test: "In vitro" MIC, Proteus mirabilis; assay type: cell-based; conditions: read-out: "In vitro" MIC
Experimental: as §1
Proteus mirabilis ATCC 4675
as §2, §3, §4, §5

[14] = test system: Salmonella typhimurium AMES 98; test: "In vitro" MIC, Salmonella typhimurium AMES 98; assay type: cell-based; conditions: Salmonella enterica, read-out: "In vitro" MIC
Experimental: as §1
Salmonella typhimurium AMES 98
as §2, §3, §4, §5

[15] = test system: Staphylococcus aureus ATCC 25178; test: "In vitro" MIC, Staphylococcus aureus ATCC 25178; assay type: cell-based; conditions: read-out: "In vitro" MIC
Experimental: as §1
Staphylococcus aureus ATCC 25178
as §2, §3, §4, §5

[16] = test system: Staphylococcus aureus ATCC 5488/23; test: "In vitro" MIC, Staphylococcus aureus ATCC 5488/23; assay type: cell-based; conditions: read-out: "In vitro" MIC
Experimental: as §1
Staphylococcus aureus ATCC 5488/23
as §2, §3, §4, §5

Sarcina lutea ATCC 9341 = test: "In vitro" MIC, Sarcina lutea; assay type: cell-based; conditions: Micrococcus luteus, read-out: "In vitro" MIC
Experimental: as §1, §2, §3, §4, §5

[17] = test system: Citrobacter freundii ATCC 11606; test: "In vitro" MIC, Citrobacter freundii; assay type: cell-based; conditions: read-out: "In vitro" MIC
Experimental: as §1
Citrobacter freundii ATCC 11606
as §2, §3, §4, §5

Shigella flexnerii = test: "In vitro" MIC, Shigella flexnerii; assay type: cell-based; conditions: 20 h, read-out: "In vitro" MIC
Experimental: as §1, §2, §3, §4, §5

Proteus morganii CHSP-16 = test: "In vitro" MIC, Proteus morganii; assay type: cell-based; conditions: Morganella morganii, read-out: "In vitro" MIC
Experimental: as §1, §2, §3, §4, §5

**Q.** Which results are given for `CNn1cc(C(=O)O)c(=O)c2cc(F)c(-n3cccc3)cc21` [Example 7, 6-fluoro-7-(pyrrol-1-yl)-1-methylamino-4-oxo-1,4-dihydroquinoline-3-carboxylic acid]?
**A.** MIC (Escherichia coli R-1513; R1513, Escherichia coli R-1513, dextrose agar, 37° C., 20 hours): 0.5 µg/mL (≈ 1.66 µM); MIC ([1]; ATTC13880, Serratia marcescens ATTC 13880, dextrose agar, 37° C., 20 hours): 1 µg/mL (≈ 3.32 µM); MIC ([2]; ATCC6633, Bacillus subtilis ATCC 6633, dextrose agar, 37° C., 20 hours): ≤ 0.062 µg/mL; MIC ([3]; ATCC10541, Streptococcus faecalis ATCC 10541, dextrose agar, 37° C., 20 hours): 4 µg/mL (≈ 13.3 µM); LD50 at 168 h (Acute toxicity to mice): > 1600 mg/kg; MIC ([4]; ATCC10240, Micrococcus flavus ATCC 10240, dextrose agar, 37° C., 20 hours): 4 µg/mL (≈ 13.3 µM); MIC ([5]; ATCC10031, Klebsiella pneumoniae ATCC 10031, dextrose agar, 37° C., 20 hours): 0.125 µg/mL (≈ 0.415 µM); "in vitro" activity compared with nalidixic acid (Gram-positive cocci): greater "in vitro" activity than nalidixic acid; MIC ([6]; Pseudomonas aeruginosa 25115, dextrose agar, 37° C., 20 hours): 8 µg/mL (≈ 26.6 µM); "in vitro" activity compared with nalidixic acid [7]: greater "in vitro" activity than nalidixic acid; MIC ([8]; ATCC10536, Escherichia coli ATCC 10536, dextrose agar, 37° C., 20 hours): ≤ 0.062 µg/mL; MIC ([9]; ADSA47, Pseudomonas aeruginosa ADSA 47, dextrose agar, 37° C., 20 hours): 16 µg/mL (≈ 53.1 µM); MIC ([10]; ATCC15038, Enterobacter aerogenes ATCC 15038, dextrose agar, 37° C., 20 hours): 1 µg/mL (≈ 3.32 µM); MIC ([11]; Salmonella typhimurium AMES 100, dextrose agar, 37° C., 20 hours): 0.25 µg/mL (≈ 0.83 µM); MIC ([12]; CHSP20, Enterobacter cloacae CHSP-20, dextrose agar, 37° C., 20 hours): 1 µg/mL (≈ 3.32 µM); MIC ([13]; ATCC4675, Proteus mirabilis ATCC 4675, dextrose agar, 37° C., 20 hours): 2 µg/mL (≈ 6.64 µM); MIC ([14]; Salmonella typhimurium AMES 98, dextrose agar, 37° C., 20 hours): 0.125 µg/mL (≈ 0.415 µM); MIC ([15]; ATCC25178, Staphylococcus aureus ATCC 25178, dextrose agar, 37° C., 20 hours): 0.25 µg/mL (≈ 0.83 µM); MIC ([16]; ATCC5488, Staphylococcus aureus ATCC 5488/23, dextrose agar, 37° C., 20 hours): 0.25 µg/mL (≈ 0.83 µM); MIC (Sarcina lutea ATCC 9341; ATCC9341, Sarcina lutea ATCC 9341, dextrose agar, 37° C., 20 hours): 4 µg/mL (≈ 13.3 µM); MIC ([17]; ATCC11606, Citrobacter freundii ATCC 11606, dextrose agar, 37° C., 20 hours): 1 µg/mL (≈ 3.32 µM); MIC (Shigella flexnerii): 1 µg/mL (≈ 3.32 µM); MIC (Proteus morganii CHSP-16; CHSP16, Proteus morganii CHSP-16, dextrose agar, 37° C., 20 hours): 1 µg/mL (≈ 3.32 µM)

**Q.** With `CCn1cc(C(=O)O)c(=O)c2ccc(C)nc21` [Nalidixic acid, reference compound] as the compound, how does the MIC (Escherichia coli R-1513; Escherichia coli, R1513, 20 h) read?
**A.** 4 µg/mL (≈ 17.2 µM)

**Q.** What about the MIC ([1]; Serratia marcescens, ATTC13880, 20 h) of the same compound?
**A.** 1 µg/mL (≈ 4.31 µM)

**Q.** What about the MIC ([2]; Bacillus subtilis, ATCC6633, 20 h) of the same compound?
**A.** 1 µg/mL (≈ 4.31 µM)

**Q.** And the MIC ([3]; ATCC10541, 20 h)?
**A.** ≥ 64 µg/mL

**Q.** What about the MIC ([4]; Micrococcus flavus, ATCC10240, 20 h) of the same compound?
**A.** 128 µg/mL (≈ 551 µM)

**Q.** And the MIC ([5]; Klebsiella pneumoniae, ATCC10031, 20 h)?
**A.** 1 µg/mL (≈ 4.31 µM)

**Q.** What about the MIC ([6]; Pseudomonas aeruginosa, 25115, 20 h) of the same compound?
**A.** ≥ 128 µg/mL

**Q.** And the MIC ([8]; Escherichia coli, ATCC10536, 20 h)?
**A.** 0.25 µg/mL (≈ 1.08 µM)

**Q.** And the MIC ([9]; Pseudomonas aeruginosa, ADSA47, 20 h)?
**A.** ≥ 128 µg/mL

**Q.** What about the MIC ([10]; ATCC15038, 20 h) of the same compound?
**A.** 4 µg/mL (≈ 17.2 µM)

**Q.** And the MIC ([11]; TYPHIMURIUM, 20 h)?
**A.** 0.5 µg/mL (≈ 2.15 µM)

**Q.** And the MIC ([12]; Enterobacter cloacae, CHSP20, 20 h)?
**A.** 4 µg/mL (≈ 17.2 µM)

**Q.** And the MIC ([13]; Proteus mirabilis, ATCC4675, 20 h)?
**A.** 8 µg/mL (≈ 34.4 µM)

**Q.** And the MIC ([14]; TYPHIMURIUM, 20 h)?
**A.** 0.5 µg/mL (≈ 2.15 µM)

**Q.** And the MIC ([15]; Staphylococcus aureus, ATCC25178, 20 h)?
**A.** ≥ 64 µg/mL

**Q.** And the MIC ([16]; Staphylococcus aureus, ATCC5488, 20 h)?
**A.** 32 µg/mL (≈ 138 µM)

**Q.** What about the MIC (Sarcina lutea ATCC 9341; ATCC9341, 20 h) of the same compound?
**A.** 128 µg/mL (≈ 551 µM)

**Q.** What about the MIC ([17]; Citrobacter freundii, ATCC11606, 20 h) of the same compound?
**A.** 4 µg/mL (≈ 17.2 µM)

**Q.** And the MIC (Shigella flexnerii)?
**A.** 2 µg/mL (≈ 8.61 µM)

**Q.** And the MIC (Proteus morganii CHSP-16; CHSP16, 20 h)?
**A.** 1 µg/mL (≈ 4.31 µM)
